Experimental data from patent publication US8455469B2, “Use of norgestimate as a selective inhibitor of TRPC3, TRPC6 and TRPC7 ion channels” (Sanofi, priority 2007, dated 2013).
“Also recorded” adds a separate entry of the source.

Tests used:
[1] = target: T1, TRPC5 (Homo sapiens, UniProt Q9UL62); assay: Whole-cell patch clamp, AlF4- activated TRPC5 HEK293 cells; format: cell-based; settings: 10 μM, -70 mV, n=20
T1 construct: expressed in transfected cells; host or cells: HEK293 FITR (inducible expression)
T1 sequence (Q9UL62 1-973): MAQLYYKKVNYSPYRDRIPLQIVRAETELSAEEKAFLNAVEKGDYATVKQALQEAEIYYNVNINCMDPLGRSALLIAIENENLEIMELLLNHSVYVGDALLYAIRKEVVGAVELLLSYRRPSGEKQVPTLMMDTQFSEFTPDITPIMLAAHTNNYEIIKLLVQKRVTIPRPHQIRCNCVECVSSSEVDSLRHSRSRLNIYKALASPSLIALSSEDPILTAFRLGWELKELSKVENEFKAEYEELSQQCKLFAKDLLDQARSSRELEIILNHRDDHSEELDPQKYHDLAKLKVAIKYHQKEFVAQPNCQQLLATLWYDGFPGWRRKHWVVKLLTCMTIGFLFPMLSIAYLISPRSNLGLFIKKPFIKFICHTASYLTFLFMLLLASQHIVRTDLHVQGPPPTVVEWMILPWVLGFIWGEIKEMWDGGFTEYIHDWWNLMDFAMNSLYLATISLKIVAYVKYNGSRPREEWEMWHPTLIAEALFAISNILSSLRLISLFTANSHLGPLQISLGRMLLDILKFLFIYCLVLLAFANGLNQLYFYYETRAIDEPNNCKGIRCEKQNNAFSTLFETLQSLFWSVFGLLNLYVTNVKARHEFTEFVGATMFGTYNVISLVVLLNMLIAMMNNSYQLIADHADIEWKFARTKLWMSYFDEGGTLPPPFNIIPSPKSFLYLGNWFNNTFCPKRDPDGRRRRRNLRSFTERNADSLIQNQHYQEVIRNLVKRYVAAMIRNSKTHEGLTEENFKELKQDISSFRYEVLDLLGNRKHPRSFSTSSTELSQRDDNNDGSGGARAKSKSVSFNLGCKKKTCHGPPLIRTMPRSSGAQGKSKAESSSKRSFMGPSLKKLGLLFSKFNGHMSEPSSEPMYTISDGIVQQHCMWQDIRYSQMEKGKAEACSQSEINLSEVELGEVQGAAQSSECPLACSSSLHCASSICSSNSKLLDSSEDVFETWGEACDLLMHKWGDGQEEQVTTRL
Experimental: Channels were indirectly excited with the same stimulus for better comparability of the norgestimate effect. Aluminium tetrafluoride (AIF^4−) applied intracellularly via the patch pipette activates G-proteins by mimicking GTP (Sternweis & Gilman, 1982; Bigay et al., 1987).
Since these channels are potentiated by micromolar La^3+ concentrations (Jung et al., 2003), 2-aminoethoxydiphenyl borate (2-APB), a characterized TRPC5 blocker (Xu et al., 2005) was used instead.
Effect of 10 μM norgestimate (NG) on whole-cell currents evoked by AlF4^− infusion into induced TRPC6— (A) and TRPC5 HEK 293 (B) cells. Whole cell currents recorded at −70 mV (left panels) and the corresponding current-voltage (I-V) relationships are shown (right panels). […] The curves were obtained during voltage ramps from −100 to +80 mV. (C) Statistical analysis of the norgestimate effect on TRPC5— and TRPC6-mediated currents.

[2] = target: T1, TRPC5; assay: FLIPR Ca2+ influx measurement, trypsin-stimulated TRPC5 HEK293 cells; format: cell-based; settings: 200 nM trypsin
Excerpt: In general, cells are provided which express a TRPC channel. Such cells can be produced using genetic methods known to a person skilled in the art. After having induced the expression of the TRPC channel, cells are usually plated into e.g. microtiter plates and grown. Usually the cells grow at the bottom of multiwell plates and are fixed. Thereafter, the cells are generally washed and loaded with a dye in a suitable loading buffer, preferably with a fluorescent dye such as fluo4am. After having removed the loading buffer, the cells are incubated with the test compound or modulator, in particular with a biochemical or chemical test compound as described above, e.g. in the form of a chemical compound library. Ca^2+ measurements can be carried out using e.g. a Fluorescence Imaging Plate Reader (FLIPR). To stimulate Ca^2+ influx through the TRPC channel a channel activator such as OAG should generally be applied.
When these experiments were performed, no direct physiological stimuli of TRPC4 and TRPC5 were known. Therefore, both channels had to be stimulated indirectly, e.g. by application of trypsin, a protease-activated receptor (PAR) stimulating protease. […] Kinetics and quantity of calcium store release in cells treated with 30 μM norgestimate were not changed compared to untreated cells. […]

With `C#C[C@]1(OC(C)=O)CC[C@H]2[C@@H]3CCC4=C/C(=N/O)CC[C@@H]4[C@H]3CC[C@@]21CC` [norgestimate, D-17β-acetoxy-B-ethyl-17α ethinyl-gon-4-en-3-one oxime] the TRPC5 current blocked [1] was 25.9±5.7%, the “inhibitory effect on TRPC5-mediated Ca2+ influx” value ([2]; 30 μM norgestimate) was “only small inhibitory effects; also recorded: slightly reduced” and the IC50 ([2]; FLIPR, n=4) was greater than 30 µM.
